Source: the supplement of paper PMC11061612

What was measured:
[1] = system: FU-OV-1 (Ovarian Carcinoma); assay: Bliss excess, mean over the matrix (fraction); higher = more synergy
Method in brief: (§1)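 Bliss excess equals the observed combination effect minus the expected value EA + EB − EA·EB, where EA and EB are the effects of each agent alone. Combination Emax is the second-highest inhibition within the matrix. Inhibition was scaled from CellTiter-Glo 2.0 luminescence, with 0 set by vehicle wells and 1 by blank wells, after 72 hours of two-drug dosing of cells plated in 1536-well plates.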

[2] = system: TC-YIK (Other Solid Carcinomas); assay: as above
Method in brief: as §1

[3] = system: D-283MED (Other Solid Carcinomas); assay: combination Emax (second highest fraction inhibited in the dose matrix, 72 h); higher = more inhibition; extreme values may be limits of the assay
Method in brief: as §1

[4] = system: FU-OV-1 (Ovarian Carcinoma); assay: as above
Method in brief: as §1

[5] = system: GDM-1 (Acute Myeloid Leukemia); assay: as above
Method in brief: as §1

[6] = system: HCC1143 (Breast Carcinoma); assay: as above
Method in brief: as §1

[7] = system: HCC-827 (Lung Adenocarcinoma); assay: as above
Method in brief: as §1

[8] = system: P31-FUJ (Acute Myeloid Leukemia); assay: as above
Method in brief: as §1

[9] = system: EFM-192A (Breast Carcinoma); assay: as above
Method in brief: as §1

[10] = system: SK-LMS-1 (Other Solid Carcinomas); assay: as above
Method in brief: as §1

[11] = system: U-118-MG (Low Grade Glioma); assay: as above
Method in brief: as §1

[12] = system: RCC10RGB (Kidney Carcinoma); assay: as above
Method in brief: as §1

[13] = system: HOP-92 (Non-Small Cell Lung Carcinoma); assay: as above
Method in brief: as §1

[14] = system: KG-1 (Acute Myeloid Leukemia); assay: as above
Method in brief: as §1

[15] = system: TC-YIK (Other Solid Carcinomas); assay: as above
Method in brief: as §1

[16] = system: NCI-H1688 (Small Cell Lung Carcinoma); assay: as above
Method in brief: as §1

| SMILES | Bliss excess [1] | Bliss excess [2] | combination Emax [3] | combination Emax [4] | combination Emax [5] | combination Emax [6] | combination Emax [7] | combination Emax [8] | combination Emax [9] | combination Emax [10] | combination Emax [11] | combination Emax [12] | combination Emax [13] | combination Emax [14] | combination Emax [15] | combination Emax [16] |
| --- | --- | --- | --- | --- | --- | --- | --- | --- | --- | --- | --- | --- | --- | --- | --- | --- |
| CC(=O)c1c(C)c2cnc(Nc3ccc(N4CCNCC4)cn3)nc2n(C2CCCC2)c1=O [Palbociclib] + CC1(C)CCC(CN2CCN(c3ccc(C(=O)NS(=O)(=O)c4ccc(NCC5CCOCC5)c([N+](=O)[O-])c4)c(Oc4cnc5[nH]ccc5c4)c3)CC2)=C(c2ccc(Cl)cc2)C1 [Venetoclax] (first compound max 10 µM, 7x7, partner max 1 µM) | -0.0496 | -0.0713 | 0.668 | 0.175 | 0.892 | 0.129 | 0.168 | 0.364 | 0.165 | 0.147 | 0.229 | 0.476 | 0.145 | 0.85 | 0.534 | 0.0922 |
| NC1(C(=O)N[C@@H](CCO)c2ccc(Cl)cc2)CCN(c2ncnc3[nH]ccc23)CC1 [Capivasertib] + CCN(CCO)CCCOc1ccc2c(Nc3cc(CC(=O)Nc4cccc(F)c4)[nH]n3)ncnc2c1 [AZD2811] (first compound max 10 µM, 7x7, partner max 1 µM) | -0.0235 | -0.0415 | 0.737 | 0.268 | 0.837 | 0.287 | 0.35 | 0.952 | 0.449 | 0.457 | 0.603 | 0.292 | 0.458 | 0.458 | 0.95 | 0.309 |
| CS(=O)(=O)CCNCc1ccc(-c2ccc3ncnc(Nc4ccc(OCc5cccc(F)c5)c(Cl)c4)c3c2)o1 [Lapatinib] + NC1(c2ccc(-c3nc4ccn5c(=O)[nH]nc5c4cc3-c3ccccc3)cc2)CCC1 [MK-2206] (first compound max 10 µM, 7x7, partner max 10 µM) | 0.0239 | -0.014 | 0.96 | 0.751 |  | 0.89 |  | 0.947 |  | 0.927 |  |  | 0.685 |  | 0.944 | 0.819 |
| C=CCn1c(=O)c2cnc(Nc3ccc(N4CCN(C)CC4)cc3)nc2n1-c1cccc(C(C)(C)O)n1 [AZD1775] + C1CN(CCC1(C(=O)N[C@@H](CCO)C2=CC=C(C=C2)Cl)N)C3=NC=NC4=C3C=CN4 [Capivasertib] (first compound max 3 µM, partner max 3 µM) | -0.0615 | -0.0543 | 0.904 | 0.565 | 0.824 | 0.771 | 0.655 | 0.999 | 0.494 | 0.635 | 0.577 | 0.583 | 0.551 | 0.852 | 0.895 | 0.687 |
| NC1(C(=O)N[C@@H](CCO)c2ccc(Cl)cc2)CCN(c2ncnc3[nH]ccc23)CC1 [Capivasertib] + CC(=O)c1c(C)c2cnc(Nc3ccc(N4CCNCC4)cn3)nc2n(C2CCCC2)c1=O [Palbociclib] (first compound max 10 µM, 7x7, partner max 10 µM) | -0.0388 | -0.048 | 0.634 | 0.236 | 0.623 | 0.498 | 0.344 | 0.571 | 0.432 | 0.433 | 0.676 | 0.54 | 0.466 | 0.398 | 0.44 | 0.224 |
| CS(=O)(=O)CCNCc1ccc(-c2ccc3ncnc(Nc4ccc(OCc5cccc(F)c5)c(Cl)c4)c3c2)o1 [Lapatinib] + Cn1cnc2c(F)c(Nc3ccc(Br)cc3Cl)c(C(=O)NOCCO)cc21 [Selumetinib] (first compound max 10 µM, 7x7, partner max 10 µM) | -0.0698 | 0.0665 | 0.935 | 0.55 |  |  |  | 0.521 |  | 0.402 |  |  |  |  | 0.531 |  |
| Cc1nc(Nc2ncc(C(=O)Nc3c(C)cccc3Cl)s2)cc(N2CCN(CCO)CC2)n1 [Dasatinib] + CC(=O)Nc1cccc(-n2c(=O)n(C3CC3)c(=O)c3c(Nc4ccc(I)cc4F)n(C)c(=O)c(C)c32)c1 [Trametinib] (first compound max 2 µM, 7x7, partner max 1 µM) |  | 0.0746 | 0.419 |  | 0.76 | 0.657 | 0.947 | 0.65 | 0.122 | 0.645 | 0.557 | 0.667 | 0.928 | 0.419 | 0.638 | 0.249 |
| C[C@@H](c1ccc2nccn2c1)n1nnc2ncc(-c3cnn(C)c3)nc21 [Savolitinib] + Cc1c2c(nn1C)CSCc1cc(n(C)n1)CSc1cc(c3ccccc3c1)OCCCc1c(C(=O)O)n(C)c3c-2c(Cl)ccc13 [AZD5991] (first compound max 1 µM, 7x7, partner max 1 µM) | -0.056 | 0.003 | 0.725 | 0.204 | 0.208 | 0.402 | 0.283 | 0.94 | 0.587 | 0.223 | 0.258 | 0.289 | 0.197 | 0.711 | 0.193 | 0.314 |
